Measurements from ChEMBL document CHEMBL3045387, “Synthesis and Fungicidal Activity of New 1, 3, 2-Oxazaphospholidine 2-Sulfides” (1994).

Assays:
Assay type in all cases: functional
Conditions in all cases: 96 h, read-out: GI
[1] = system: Corticium; test: Antimicrobial activity against Corticium sp. assessed as inhibition of mycelial growth on potato dextrose agar at 100 ppm at 27 degC measured after 4 days
[2] = system: Pythium; test: Antimicrobial activity against Pythium sp. assessed as inhibition of mycelial growth on potato dextrose agar at 100 ppm at 27 degC measured after 4 days
[3] = system: Pythium; test: Antimicrobial activity against Pythium sp. assessed as inhibition of mycelial growth on potato dextrose agar at 1000 ppm at 27 degC measured after 4 days
[4] = system: Corticium; test: Antimicrobial activity against Corticium sp. assessed as inhibition of mycelial growth on potato dextrose agar at 1000 ppm at 27 degC measured after 4 days

SMILES: C=CCc1ccc(OP2(=S)N[C@@H](CC(C)C)CO2)c(OC)c1 (some centres undefined)
- inhibition of growth at 100 ppm [1]: 0.8%
- inhibition of growth at 100 ppm [2]: 9.9%

SMILES: CC(C)=CCC/C(C)=C/COP1(=S)N[C@@H](Cc2ccccc2)CO1 (some centres undefined)
- inhibition of growth at 1000 ppm [3]: 16.9%
- inhibition of growth at 1000 ppm [4]: 60.4%
- inhibition of growth at 100 ppm [1]: 28.5%
- inhibition of growth at 100 ppm [2]: 4%

SMILES: CC(C)=CCCC(C)CCOP1(=S)N[C@@H](Cc2ccccc2)CO1 (some centres undefined)
- inhibition of growth at 1000 ppm [3]: 30.8%
- inhibition of growth at 1000 ppm [4]: 66.8%
- inhibition of growth at 100 ppm [1]: 21.1%
- inhibition of growth at 100 ppm [2]: 1.6%

SMILES: Cc1ccc(OP2(=S)N[C@@H](Cc3ccccc3)CO2)c(C(C)C)c1 (some centres undefined)
- inhibition of growth at 1000 ppm [3]: 58.2%
- inhibition of growth at 1000 ppm [4]: 36%
- inhibition of growth at 100 ppm [1]: 15.3%
- inhibition of growth at 100 ppm [2]: 9.4%

SMILES: Cc1ccc(C(C)C)c(OP2(=S)N[C@@H](Cc3ccccc3)CO2)c1 (some centres undefined)
- inhibition of growth at 1000 ppm [3]: 46%
- inhibition of growth at 1000 ppm [4]: 41%
- inhibition of growth at 100 ppm [1]: 33.8%
- inhibition of growth at 100 ppm [2]: 19.8%

SMILES: CC(C)=CCC/C(C)=C/COP1(=S)N[C@@H](C)CO1 (some centres undefined)
- inhibition of growth at 100 ppm [1]: 22.7%
- inhibition of growth at 100 ppm [2]: 20.2%

SMILES: CC(C)=CCCC(C)CCOP1(=S)N[C@@H](C)CO1 (some centres undefined)
- inhibition of growth at 100 ppm [1]: 0%
- inhibition of growth at 100 ppm [2]: 0%

SMILES: Cc1ccc(OP2(=S)N[C@@H](C)CO2)c(C(C)C)c1 (some centres undefined)
- inhibition of growth at 100 ppm [1]: 31.7%
- inhibition of growth at 100 ppm [2]: 10.8%

SMILES: Cc1ccc(C(C)C)c(OP2(=S)N[C@@H](C)CO2)c1 (some centres undefined)
- inhibition of growth at 100 ppm [1]: 0%
- inhibition of growth at 100 ppm [2]: 0%

SMILES: CC(C)=CCC/C(C)=C/COP1(=S)N[C@@H](C(C)C)CO1 (some centres undefined)
- inhibition of growth at 100 ppm [1]: 68.6%
- inhibition of growth at 100 ppm [2]: 68.2%

SMILES: CC(C)=CCCC(C)CCOP1(=S)N[C@@H](C(C)C)CO1 (some centres undefined)
- inhibition of growth at 100 ppm [1]: 42.6%
- inhibition of growth at 100 ppm [2]: 87.3%

SMILES: Cc1ccc(OP2(=S)N[C@@H](C(C)C)CO2)c(C(C)C)c1 (some centres undefined)
- inhibition of growth at 100 ppm [1]: 0%
- inhibition of growth at 100 ppm [2]: 24.3%

SMILES: Cc1ccc(C(C)C)c(OP2(=S)N[C@@H](C(C)C)CO2)c1 (some centres undefined)
- inhibition of growth at 100 ppm [1]: 18.7%
- inhibition of growth at 100 ppm [2]: 29.8%

SMILES: C=CCc1ccc(OP2(=S)N[C@@H](C(C)C)CO2)c(OC)c1 (some centres undefined)
- inhibition of growth at 100 ppm [1]: 37.5%
- inhibition of growth at 100 ppm [2]: 53.9%

SMILES: CC(C)=CCC/C(C)=C/COP1(=S)N[C@@H](CC(C)C)CO1 (some centres undefined)
- inhibition of growth at 1000 ppm [3]: 100%
- inhibition of growth at 1000 ppm [4]: 97.9%
- inhibition of growth at 100 ppm [1]: 26.7%
- inhibition of growth at 100 ppm [2]: 35.4%

SMILES: CC(C)=CCCC(C)CCOP1(=S)N[C@@H](CC(C)C)CO1 (some centres undefined)
- inhibition of growth at 1000 ppm [3]: 53.9%
- inhibition of growth at 1000 ppm [4]: 82.9%
- inhibition of growth at 100 ppm [1]: 26.7%
- inhibition of growth at 100 ppm [2]: 24.7%

SMILES: Cc1ccc(OP2(=S)N[C@@H](CC(C)C)CO2)c(C(C)C)c1 (some centres undefined)
- inhibition of growth at 1000 ppm [3]: 58.2%
- inhibition of growth at 1000 ppm [4]: 64.3%
- inhibition of growth at 100 ppm [1]: 14.6%
- inhibition of growth at 100 ppm [2]: 11.7%

SMILES: Cc1ccc(C(C)C)c(OP2(=S)N[C@@H](CC(C)C)CO2)c1 (some centres undefined)
- inhibition of growth at 1000 ppm [3]: 36.1%
- inhibition of growth at 1000 ppm [4]: 77.1%
- inhibition of growth at 100 ppm [1]: 36.8%
- inhibition of growth at 100 ppm [2]: 19.8%

SMILES: CC[C@H](C)[C@H]1COP(=S)(OC/C=C(\C)CCC=C(C)C)N1 (some centres undefined)
- inhibition of growth at 100 ppm [1]: 0%
- inhibition of growth at 100 ppm [2]: 0%

SMILES: CC[C@H](C)[C@H]1COP(=S)(OCCC(C)CCC=C(C)C)N1 (some centres undefined)
- inhibition of growth at 100 ppm [1]: 0%
- inhibition of growth at 100 ppm [2]: 0%

SMILES: CC[C@H](C)[C@H]1COP(=S)(Oc2ccc(C)cc2C(C)C)N1 (some centres undefined)
- inhibition of growth at 100 ppm [1]: 0%
- inhibition of growth at 100 ppm [2]: 12.5%

SMILES: CC[C@H](C)[C@H]1COP(=S)(Oc2cc(C)ccc2C(C)C)N1 (some centres undefined)
- inhibition of growth at 100 ppm [1]: 0%
- inhibition of growth at 100 ppm [2]: 3.7%

SMILES: C=CCc1ccc(OP2(=S)N[C@@H]([C@@H](C)CC)CO2)c(OC)c1 (some centres undefined)
- inhibition of growth at 100 ppm [1]: 25.3%
- inhibition of growth at 100 ppm [2]: 41.7%

SMILES: CC1=CCC2CC1C2(C)C (stereo not drawn) [ALPHA-PINENE]
- inhibition of growth at 1000 ppm [3]: 0%
- inhibition of growth at 1000 ppm [4]: 46.3%
- inhibition of growth at 100 ppm [1]: 0.8%
- inhibition of growth at 100 ppm [2]: 4%

SMILES: CC1=CC[C@@H](C(C)(C)O)CC1 [ALPHA-TERPINEOL]
- inhibition of growth at 1000 ppm [3]: 100%
- inhibition of growth at 1000 ppm [4]: 100%
- inhibition of growth at 100 ppm [1]: 71.8%
- inhibition of growth at 100 ppm [2]: 11.2%

SMILES: CC(=O)CCc1ccccc1 [BENZYLACETONE]
- inhibition of growth at 1000 ppm [3]: 100%
- inhibition of growth at 1000 ppm [4]: 100%
- inhibition of growth at 100 ppm [1]: 30.5%
- inhibition of growth at 100 ppm [2]: 24.5%

SMILES: C=C1CCC2CC1C2(C)C (stereo not drawn) [BETA-PINENE]
- inhibition of growth at 1000 ppm [3]: 2.2%
- inhibition of growth at 1000 ppm [4]: 16.3%
- inhibition of growth at 100 ppm [1]: 1.2%
- inhibition of growth at 100 ppm [2]: 0%

SMILES: CC1(C)C2CCC1(C)C(O)C2 (centres undefined) [BORNEOL]
- inhibition of growth at 1000 ppm [3]: 100%
- inhibition of growth at 1000 ppm [4]: 100%
- inhibition of growth at 100 ppm [1]: 27.7%
- inhibition of growth at 100 ppm [2]: 21.1%

SMILES: CC12CCC(CC1=O)C2(C)C (centres undefined) [CAMPHOR]
- inhibition of growth at 1000 ppm [3]: 9.3%
- inhibition of growth at 1000 ppm [4]: 22.1%
- inhibition of growth at 100 ppm [1]: 0.4%
- inhibition of growth at 100 ppm [2]: 0%

SMILES: CC(C)=CCCC(C)CCO (centres undefined) [CITRONELLOL]
- inhibition of growth at 1000 ppm [3]: 100%
- inhibition of growth at 1000 ppm [4]: 100%
- inhibition of growth at 100 ppm [1]: 23.9%
- inhibition of growth at 100 ppm [2]: 68.9%

SMILES: CC(C)c1ccc(C=O)cc1 [CUMINALDEHYDE]
- inhibition of growth at 1000 ppm [3]: 100%
- inhibition of growth at 1000 ppm [4]: 100%
- inhibition of growth at 100 ppm [1]: 22%
- inhibition of growth at 100 ppm [2]: 14%

SMILES: COC(=O)/C=C/c1ccccc1 [E-METHYL CINNAMATE]
- inhibition of growth at 1000 ppm [3]: 100%
- inhibition of growth at 1000 ppm [4]: 100%
- inhibition of growth at 100 ppm [1]: 54%
- inhibition of growth at 100 ppm [2]: 66%

SMILES: CC12CCC(CC1)C(C)(C)O2 [EUCALYPTOL]
- inhibition of growth at 1000 ppm [3]: 0.4%
- inhibition of growth at 1000 ppm [4]: 0%
- inhibition of growth at 100 ppm [1]: 8.3%
- inhibition of growth at 100 ppm [2]: 0%

SMILES: C=CCc1ccc(O)c(OC)c1 [EUGENOL]
- inhibition of growth at 1000 ppm [3]: 100%
- inhibition of growth at 1000 ppm [4]: 100%
- inhibition of growth at 100 ppm [1]: 67.6%
- inhibition of growth at 100 ppm [2]: 92.7%

SMILES: CC(C)=CCC/C(C)=C/CO [GERANIOL]
- inhibition of growth at 1000 ppm [3]: 100%
- inhibition of growth at 1000 ppm [4]: 100%
- inhibition of growth at 100 ppm [1]: 71.8%
- inhibition of growth at 100 ppm [2]: 63.3%

SMILES: Cc1ccc(O)c(C(C)C)c1 [ISOTHYMOL]
- inhibition of growth at 1000 ppm [3]: 100%
- inhibition of growth at 1000 ppm [4]: 100%
- inhibition of growth at 100 ppm [1]: 72.4%
- inhibition of growth at 100 ppm [2]: 94.3%

SMILES: C=CC(C)(O)CCC=C(C)C (centres undefined) [LINALOOL]
- inhibition of growth at 1000 ppm [3]: 67.4%
- inhibition of growth at 1000 ppm [4]: 93.9%
- inhibition of growth at 100 ppm [1]: 46.9%
- inhibition of growth at 100 ppm [2]: 21.3%

SMILES: CC1(C)C2CC=C(CO)C1C2 (centres undefined) [MYRTENOL]
- inhibition of growth at 1000 ppm [3]: 100%
- inhibition of growth at 1000 ppm [4]: 100%
- inhibition of growth at 100 ppm [1]: 56%
- inhibition of growth at 100 ppm [2]: 41%

SMILES: Cc1ccc(C(C)C)cc1 [P-CYMENE]
- inhibition of growth at 1000 ppm [3]: 0.2%
- inhibition of growth at 1000 ppm [4]: 13.6%
- inhibition of growth at 100 ppm [1]: 14.4%
- inhibition of growth at 100 ppm [2]: 0%

SMILES: CC1=CCC(O)(C(C)C)CC1 (centres undefined) [TERPINEOL]
- inhibition of growth at 1000 ppm [3]: 98.3%
- inhibition of growth at 1000 ppm [4]: 98.3%
- inhibition of growth at 100 ppm [1]: 0%
- inhibition of growth at 100 ppm [2]: 7.1%

SMILES: Cc1ccc(C(C)C)c(O)c1 [THYMOL]
- inhibition of growth at 1000 ppm [3]: 100%
- inhibition of growth at 1000 ppm [4]: 100%
- inhibition of growth at 100 ppm [1]: 71%
- inhibition of growth at 100 ppm [2]: 93%
